Patent publication US20240173323A1, “COMBINATION THERAPY FOR CANCER TREATMENT” (Takeda Pharmaceutical Company Limited, priority 2021, published 2024)
“Also recorded” adds a separate entry of the source.

Tested on: PHTXS-13O human primary ovarian cancer xenografts
Experiment: In vivo antitumor activity of Compound 1 in combination with PARP inhibitor in Patient Derived Xenograft (PDX) model
Settings: PHTXS-13O PDX in nude mice
Method: To investigate in vivo antitumor activity of Compound 1 in combination with PARP inhibitor, tests using Patient Derived Xenograft (PDX) model were conducted. Patient Derived Tumors were inoculated by the following Method.
Method: Patient Derived Tumors were maintained in nude mice by subcutaneous inoculation of tumor pieces (approx. 2×2×2 mm) into nude mice. Mice with tumor size of approximately 130 mm^3 (e.g., 125-130 mm^3) for xenograft studies were randomly assigned to dose groups on the day (Day 0) before start date of dosing.
Compound 1 (crystalline form I) was suspended in solution comprising 0.5 w/v % methylcellulose and administered orally to mice.
Tumor size was measured by caliper and tumor volume was estimated using the equation V=(LW^2)/2, where L and W are tumor length and width, respectively and reported in cubic millimeters.
Statistical analyses of combination effect for tumor growth was conducted as follows; […]
For synergy analyses, the observed differences in the log tumor values were used to calculate AUC values for each animal In instances when an animal in a treatment group was removed from the study, the last observed tumor value was carried forward through all subsequent time points. The AUC for the control, or vehicle, group was calculated using the predicted values from the pairwise models described above. […]

What does the source list for `Cc1[nH]ncc1-c1cc2nc([C@@H]3CC4CCN3CC4)[nH]c(=O)c2s1` [Compound 1, 2-[(2S)-1-azabicyclo[2.2.2]oct-2-yl]-6-(3-methyl-1H-pyrazol-4-yl)thieno[3,2-d]pyrimidin-4(3H)-one]?
antitumor activity (tumor volume) of Compound 1 combined with olaparib (Compound 1 40 or 60 mg/kg once daily orally Day 1-14 + olaparib 25 or 50 mg/kg daily orally Days 1-14, compared to either single treatment alone (FIG. 2)): good antitumor efficacy; also recorded: strong antitumor activity; antitumor activity (tumor volume) of Compound 1 combined with niraparib (Compound 1 40 or 60 mg/kg once daily orally Day 1-21 + niraparib 25 or 50 mg/kg daily orally Days 1-21, compared to either single treatment alone (FIG. 1)): good antitumor efficacy; also recorded: strong antitumor activity
